Measured values taken from patent publication US20240269139A1, “COMPOUNDS FOR TARGETED PROTEIN DEGRADATION OF KINASES” (DANA-FARBER CANCER INSTITUTE, INC., priority 2020, published 2024).
Read-outs that look alike come from different tables or passages of the source.

Assays:
[1] = biological target: T1, extended human kinome (kinase-like proteins) (Homo sapiens, UniProt Q7L8L6); assay: Whole cell quantitative proteomics: extended kinome hits; settings: Accession Q7L8L6; experiment wp137
T1 sequence (Q7L8L6 28-764): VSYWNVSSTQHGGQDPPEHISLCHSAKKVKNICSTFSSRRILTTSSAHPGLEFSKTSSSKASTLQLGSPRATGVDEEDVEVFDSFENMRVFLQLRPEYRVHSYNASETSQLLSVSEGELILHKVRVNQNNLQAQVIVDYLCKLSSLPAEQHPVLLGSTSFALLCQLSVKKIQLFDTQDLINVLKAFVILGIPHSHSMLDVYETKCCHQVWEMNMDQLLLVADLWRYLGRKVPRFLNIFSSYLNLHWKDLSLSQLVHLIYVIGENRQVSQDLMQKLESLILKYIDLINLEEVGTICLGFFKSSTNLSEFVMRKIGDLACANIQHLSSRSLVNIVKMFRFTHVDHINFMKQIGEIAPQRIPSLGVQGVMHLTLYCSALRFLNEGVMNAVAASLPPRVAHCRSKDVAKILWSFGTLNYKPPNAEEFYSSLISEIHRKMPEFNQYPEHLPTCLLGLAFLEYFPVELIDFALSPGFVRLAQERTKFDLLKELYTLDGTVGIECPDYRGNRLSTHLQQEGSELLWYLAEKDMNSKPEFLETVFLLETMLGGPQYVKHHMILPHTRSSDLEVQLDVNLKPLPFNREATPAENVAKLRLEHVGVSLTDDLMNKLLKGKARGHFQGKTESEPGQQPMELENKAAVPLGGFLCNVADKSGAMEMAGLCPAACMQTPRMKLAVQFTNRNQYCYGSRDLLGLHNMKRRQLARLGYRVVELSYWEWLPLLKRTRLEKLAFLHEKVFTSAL

[2] = biological target: T2, extended human kinome (kinase-like proteins) (Homo sapiens, UniProt Q9UHH9); assay: as above; settings: Accession Q9UHH9
T2 sequence (Q9UHH9 1-426): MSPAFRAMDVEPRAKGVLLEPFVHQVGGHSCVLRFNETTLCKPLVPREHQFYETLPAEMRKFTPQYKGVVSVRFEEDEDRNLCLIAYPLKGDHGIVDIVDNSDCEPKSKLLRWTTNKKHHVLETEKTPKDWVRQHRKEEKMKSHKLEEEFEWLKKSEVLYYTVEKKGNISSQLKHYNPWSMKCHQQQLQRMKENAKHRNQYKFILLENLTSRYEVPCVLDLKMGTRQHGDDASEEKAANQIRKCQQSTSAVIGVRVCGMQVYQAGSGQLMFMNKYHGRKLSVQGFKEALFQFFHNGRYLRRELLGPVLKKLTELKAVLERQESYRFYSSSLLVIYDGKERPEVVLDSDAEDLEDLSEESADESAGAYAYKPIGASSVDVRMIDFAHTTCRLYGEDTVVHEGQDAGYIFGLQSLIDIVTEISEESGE

[3] = biological target: extended human kinome (kinase-like proteins) (Homo sapiens, UniProt P27144); assay: as above; settings: experiment wp137
Chain of extended human kinome (kinase-like proteins) (Homo sapiens, UniProt P27144) (P27144 whole entry): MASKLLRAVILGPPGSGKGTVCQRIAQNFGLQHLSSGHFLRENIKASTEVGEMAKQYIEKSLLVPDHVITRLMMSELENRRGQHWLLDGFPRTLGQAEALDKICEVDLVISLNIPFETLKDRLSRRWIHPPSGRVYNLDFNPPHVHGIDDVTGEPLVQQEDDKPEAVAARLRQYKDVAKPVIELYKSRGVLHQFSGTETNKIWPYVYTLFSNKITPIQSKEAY

[4] = biological target: protein kinases (human kinome) (Homo sapiens, UniProt Q9Y243); type: cell-based; settings: AKT3 (Q9Y243-1)
Chain of protein kinases (human kinome) (Homo sapiens, UniProt Q9Y243) (Q9Y243 whole entry): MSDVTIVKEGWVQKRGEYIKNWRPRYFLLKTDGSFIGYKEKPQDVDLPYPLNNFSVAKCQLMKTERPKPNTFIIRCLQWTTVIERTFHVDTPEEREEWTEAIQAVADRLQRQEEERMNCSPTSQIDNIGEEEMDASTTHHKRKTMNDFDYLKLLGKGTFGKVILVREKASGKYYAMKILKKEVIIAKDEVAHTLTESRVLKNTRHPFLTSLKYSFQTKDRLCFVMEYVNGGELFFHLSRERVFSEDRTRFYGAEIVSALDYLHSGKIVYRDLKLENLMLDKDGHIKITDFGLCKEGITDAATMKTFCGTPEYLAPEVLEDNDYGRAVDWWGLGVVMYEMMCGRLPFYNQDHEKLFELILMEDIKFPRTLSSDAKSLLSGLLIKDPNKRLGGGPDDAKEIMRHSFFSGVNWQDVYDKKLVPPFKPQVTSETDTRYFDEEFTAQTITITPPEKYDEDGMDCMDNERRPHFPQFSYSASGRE

[5] = biological target: protein kinases (human kinome) (Homo sapiens, UniProt Q15118); type: cell-based; settings: PDK1 Q15118; experiment wp137
Chain of protein kinases (human kinome) (Homo sapiens, UniProt Q15118) (Q15118 29-436): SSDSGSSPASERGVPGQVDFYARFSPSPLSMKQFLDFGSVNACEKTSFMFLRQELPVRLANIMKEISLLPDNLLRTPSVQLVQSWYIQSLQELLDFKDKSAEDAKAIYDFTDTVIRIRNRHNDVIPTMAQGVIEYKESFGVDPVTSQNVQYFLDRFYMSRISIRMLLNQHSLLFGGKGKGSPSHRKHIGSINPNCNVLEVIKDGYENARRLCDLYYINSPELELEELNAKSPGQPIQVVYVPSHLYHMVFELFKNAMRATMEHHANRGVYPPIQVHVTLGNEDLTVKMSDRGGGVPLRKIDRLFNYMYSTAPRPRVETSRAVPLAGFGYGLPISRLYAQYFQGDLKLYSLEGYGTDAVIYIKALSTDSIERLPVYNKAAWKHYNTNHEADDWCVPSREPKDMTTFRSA

[6] = biological target: protein kinases (human kinome) (Homo sapiens, UniProt O14874); type: cell-based; settings: BCKDK (O14874), experiment wp137
[7] = biological target: protein kinases (human kinome) (Homo sapiens, UniProt P31749); type: cell-based; settings: for logFC: AKT1 (P31749)
Chain of protein kinases (human kinome) (Homo sapiens, UniProt P31749) (P31749 whole entry): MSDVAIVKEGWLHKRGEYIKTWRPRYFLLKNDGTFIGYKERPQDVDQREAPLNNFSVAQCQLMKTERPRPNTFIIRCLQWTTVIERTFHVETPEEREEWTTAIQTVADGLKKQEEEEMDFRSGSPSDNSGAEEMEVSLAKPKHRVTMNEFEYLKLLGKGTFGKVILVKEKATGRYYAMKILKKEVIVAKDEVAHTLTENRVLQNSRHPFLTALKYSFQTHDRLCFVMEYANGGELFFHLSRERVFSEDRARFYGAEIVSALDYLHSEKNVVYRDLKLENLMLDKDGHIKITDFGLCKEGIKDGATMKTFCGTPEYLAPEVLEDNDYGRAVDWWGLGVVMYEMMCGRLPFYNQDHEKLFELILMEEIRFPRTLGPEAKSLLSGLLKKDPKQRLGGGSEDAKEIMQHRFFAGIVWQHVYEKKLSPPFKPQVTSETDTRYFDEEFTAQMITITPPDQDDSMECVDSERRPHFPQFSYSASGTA

[8] = biological target: protein kinases (human kinome) (Homo sapiens, UniProt P31751); type: cell-based; settings: AKT2 (P31751)
Chain of protein kinases (human kinome) (Homo sapiens, UniProt P31751) (P31751 whole entry): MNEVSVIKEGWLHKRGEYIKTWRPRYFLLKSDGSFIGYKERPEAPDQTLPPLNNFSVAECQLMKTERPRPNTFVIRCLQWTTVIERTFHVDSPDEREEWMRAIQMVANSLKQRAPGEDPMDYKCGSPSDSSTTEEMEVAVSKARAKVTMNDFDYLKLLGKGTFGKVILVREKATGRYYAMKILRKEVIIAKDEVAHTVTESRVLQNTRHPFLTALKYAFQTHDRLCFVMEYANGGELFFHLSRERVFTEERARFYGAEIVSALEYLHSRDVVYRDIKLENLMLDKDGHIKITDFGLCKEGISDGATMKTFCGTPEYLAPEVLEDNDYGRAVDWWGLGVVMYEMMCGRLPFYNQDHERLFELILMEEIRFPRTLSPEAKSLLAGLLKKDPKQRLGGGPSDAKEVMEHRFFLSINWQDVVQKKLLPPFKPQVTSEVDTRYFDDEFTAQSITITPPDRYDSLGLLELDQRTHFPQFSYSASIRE

[9] = biological target: T3, protein kinases (human kinome) (Homo sapiens, UniProt Q9UEE5); type: cell-based; settings: STK17A Q9UEE5
T3 sequence (Q9UEE5 1-414): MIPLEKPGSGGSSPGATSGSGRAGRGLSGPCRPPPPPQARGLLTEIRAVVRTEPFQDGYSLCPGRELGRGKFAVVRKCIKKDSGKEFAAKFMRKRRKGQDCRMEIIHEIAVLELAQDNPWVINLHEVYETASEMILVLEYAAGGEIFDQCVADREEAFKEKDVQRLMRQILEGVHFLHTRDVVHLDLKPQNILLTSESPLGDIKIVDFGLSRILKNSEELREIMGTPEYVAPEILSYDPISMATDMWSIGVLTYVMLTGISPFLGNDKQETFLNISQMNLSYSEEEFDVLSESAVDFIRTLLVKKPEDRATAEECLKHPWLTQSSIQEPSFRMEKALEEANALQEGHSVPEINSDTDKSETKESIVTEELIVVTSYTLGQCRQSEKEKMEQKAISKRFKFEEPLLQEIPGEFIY

[10] = biological target: protein kinases (human kinome) (Homo sapiens, UniProt P11802); type: cell-based
Chain of protein kinases (human kinome) (Homo sapiens, UniProt P11802) (P11802 whole entry): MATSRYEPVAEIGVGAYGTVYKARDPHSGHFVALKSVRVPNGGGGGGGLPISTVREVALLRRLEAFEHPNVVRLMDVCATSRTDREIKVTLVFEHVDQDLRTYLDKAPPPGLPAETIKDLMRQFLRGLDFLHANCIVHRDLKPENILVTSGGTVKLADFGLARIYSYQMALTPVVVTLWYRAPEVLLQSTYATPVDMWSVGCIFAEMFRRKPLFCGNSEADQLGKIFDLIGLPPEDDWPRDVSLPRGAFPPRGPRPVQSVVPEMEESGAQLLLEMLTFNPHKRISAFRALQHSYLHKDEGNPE

[11] = biological target: extended human kinome (kinase-like proteins) (Homo sapiens, UniProt Q16875); assay: Whole cell quantitative proteomics: extended kinome hits; settings: Accession Q16875; experiment wp134
[12] = biological target: protein kinases (human kinome) (Homo sapiens, UniProt P35790); type: cell-based; settings: CHKA P35790; experiment wp152
[13] = biological target: protein kinases (human kinome) (Homo sapiens, UniProt O43683); type: cell-based; settings: for logFC: BUB1 (O43683); for logFC BUB1 (O43683): direction down
Chain of protein kinases (human kinome) (Homo sapiens, UniProt O43683) (O43683 whole entry): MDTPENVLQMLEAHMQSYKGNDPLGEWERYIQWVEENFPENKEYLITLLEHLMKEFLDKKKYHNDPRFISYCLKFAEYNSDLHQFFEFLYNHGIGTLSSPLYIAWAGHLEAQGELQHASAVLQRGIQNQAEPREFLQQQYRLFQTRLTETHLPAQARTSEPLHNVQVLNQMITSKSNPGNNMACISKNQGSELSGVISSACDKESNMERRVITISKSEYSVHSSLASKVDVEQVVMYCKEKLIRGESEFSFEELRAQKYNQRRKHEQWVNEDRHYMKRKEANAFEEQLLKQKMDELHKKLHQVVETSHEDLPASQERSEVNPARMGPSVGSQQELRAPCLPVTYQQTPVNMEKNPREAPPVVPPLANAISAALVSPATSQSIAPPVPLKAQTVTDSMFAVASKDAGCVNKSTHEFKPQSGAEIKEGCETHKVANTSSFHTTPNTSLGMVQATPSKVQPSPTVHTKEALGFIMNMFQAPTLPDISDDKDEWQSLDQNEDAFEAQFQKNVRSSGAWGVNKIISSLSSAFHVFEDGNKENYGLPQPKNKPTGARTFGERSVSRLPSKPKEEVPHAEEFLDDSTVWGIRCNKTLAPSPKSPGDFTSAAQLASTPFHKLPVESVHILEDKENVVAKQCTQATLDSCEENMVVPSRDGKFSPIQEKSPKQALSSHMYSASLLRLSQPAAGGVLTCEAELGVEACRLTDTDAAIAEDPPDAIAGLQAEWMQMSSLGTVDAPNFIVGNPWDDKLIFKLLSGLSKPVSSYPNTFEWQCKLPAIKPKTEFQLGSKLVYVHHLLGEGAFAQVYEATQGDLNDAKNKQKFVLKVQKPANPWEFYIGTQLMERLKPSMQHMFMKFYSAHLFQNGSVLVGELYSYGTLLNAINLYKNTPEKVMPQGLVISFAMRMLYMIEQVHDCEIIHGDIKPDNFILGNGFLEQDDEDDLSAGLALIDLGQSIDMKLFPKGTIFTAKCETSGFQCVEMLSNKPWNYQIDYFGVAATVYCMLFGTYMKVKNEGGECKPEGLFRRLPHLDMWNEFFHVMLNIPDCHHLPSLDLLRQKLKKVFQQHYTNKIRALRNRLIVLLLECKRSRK

[14] = biological target: protein kinases (human kinome) (Homo sapiens, UniProt P51451); type: cell-based; settings: for logFC BLK: BLK (P51451), direction down; for logFC of BLK (P51451): down
Chain of protein kinases (human kinome) (Homo sapiens, UniProt P51451) (P51451 whole entry): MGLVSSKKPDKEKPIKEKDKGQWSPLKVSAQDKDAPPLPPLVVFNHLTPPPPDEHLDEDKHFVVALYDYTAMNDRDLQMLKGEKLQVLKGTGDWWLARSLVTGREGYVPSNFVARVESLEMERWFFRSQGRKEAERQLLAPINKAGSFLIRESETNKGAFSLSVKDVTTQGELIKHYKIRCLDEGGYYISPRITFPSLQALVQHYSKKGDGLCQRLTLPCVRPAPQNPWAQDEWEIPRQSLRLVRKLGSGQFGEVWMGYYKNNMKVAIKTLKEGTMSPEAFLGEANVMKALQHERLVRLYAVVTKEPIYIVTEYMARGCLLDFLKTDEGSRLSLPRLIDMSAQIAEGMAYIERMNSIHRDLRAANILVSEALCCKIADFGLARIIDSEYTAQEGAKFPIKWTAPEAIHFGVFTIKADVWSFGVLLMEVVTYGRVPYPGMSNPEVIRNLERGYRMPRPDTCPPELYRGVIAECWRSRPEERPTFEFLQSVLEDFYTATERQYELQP

[15] = system: protein kinases (human kinome); type: cell-based
[16] = biological target: T4, protein kinases (human kinome) (Homo sapiens, UniProt Q8TAS1); type: cell-based; settings: experiment wp134
T4 sequence (Q8TAS1 1-419): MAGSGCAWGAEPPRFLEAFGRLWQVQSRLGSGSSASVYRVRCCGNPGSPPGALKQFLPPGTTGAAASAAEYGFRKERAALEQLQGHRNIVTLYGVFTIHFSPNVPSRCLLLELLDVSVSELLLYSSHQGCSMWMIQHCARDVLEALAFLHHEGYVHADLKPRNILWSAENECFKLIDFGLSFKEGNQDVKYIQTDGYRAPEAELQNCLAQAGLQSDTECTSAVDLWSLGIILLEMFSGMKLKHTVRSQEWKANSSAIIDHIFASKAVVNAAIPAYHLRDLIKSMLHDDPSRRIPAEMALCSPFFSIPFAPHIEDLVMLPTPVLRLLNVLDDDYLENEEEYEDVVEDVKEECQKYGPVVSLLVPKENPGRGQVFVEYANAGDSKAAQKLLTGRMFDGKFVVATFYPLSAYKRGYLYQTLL

[17] = biological target: protein kinases (human kinome) (Homo sapiens, UniProt Q07912); type: cell-based
[18] = biological target: protein kinases (human kinome) (Homo sapiens, UniProt P53671); type: cell-based; settings: experiment wp152
[19] = biological target: T5, protein kinases (human kinome) (Homo sapiens, UniProt P42680); type: cell-based; settings: TEC (P42680), experiment wp134
T5 sequence (P42680 1-631): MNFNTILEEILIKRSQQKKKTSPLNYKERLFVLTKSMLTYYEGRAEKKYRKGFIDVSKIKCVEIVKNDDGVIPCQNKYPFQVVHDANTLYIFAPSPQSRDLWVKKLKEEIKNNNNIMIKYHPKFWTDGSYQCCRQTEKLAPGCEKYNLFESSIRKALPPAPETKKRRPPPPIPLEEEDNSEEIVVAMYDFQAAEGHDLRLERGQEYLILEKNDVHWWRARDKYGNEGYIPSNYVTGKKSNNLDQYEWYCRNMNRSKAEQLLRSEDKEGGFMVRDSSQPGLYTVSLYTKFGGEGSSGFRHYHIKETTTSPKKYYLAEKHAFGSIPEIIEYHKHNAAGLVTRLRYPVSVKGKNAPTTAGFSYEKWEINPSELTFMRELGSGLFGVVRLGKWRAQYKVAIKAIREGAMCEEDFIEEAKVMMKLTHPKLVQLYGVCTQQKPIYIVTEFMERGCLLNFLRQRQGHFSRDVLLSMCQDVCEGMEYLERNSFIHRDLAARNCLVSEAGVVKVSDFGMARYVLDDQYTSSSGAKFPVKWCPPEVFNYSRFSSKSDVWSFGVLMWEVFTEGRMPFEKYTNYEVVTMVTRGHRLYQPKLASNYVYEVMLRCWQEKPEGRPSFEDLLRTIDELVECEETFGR

[20] = biological target: protein kinases (human kinome) (Homo sapiens, UniProt Q9H0K1); type: cell-based; settings: experiment wp134
Chain of protein kinases (human kinome) (Homo sapiens, UniProt Q9H0K1) (Q9H0K1 whole entry): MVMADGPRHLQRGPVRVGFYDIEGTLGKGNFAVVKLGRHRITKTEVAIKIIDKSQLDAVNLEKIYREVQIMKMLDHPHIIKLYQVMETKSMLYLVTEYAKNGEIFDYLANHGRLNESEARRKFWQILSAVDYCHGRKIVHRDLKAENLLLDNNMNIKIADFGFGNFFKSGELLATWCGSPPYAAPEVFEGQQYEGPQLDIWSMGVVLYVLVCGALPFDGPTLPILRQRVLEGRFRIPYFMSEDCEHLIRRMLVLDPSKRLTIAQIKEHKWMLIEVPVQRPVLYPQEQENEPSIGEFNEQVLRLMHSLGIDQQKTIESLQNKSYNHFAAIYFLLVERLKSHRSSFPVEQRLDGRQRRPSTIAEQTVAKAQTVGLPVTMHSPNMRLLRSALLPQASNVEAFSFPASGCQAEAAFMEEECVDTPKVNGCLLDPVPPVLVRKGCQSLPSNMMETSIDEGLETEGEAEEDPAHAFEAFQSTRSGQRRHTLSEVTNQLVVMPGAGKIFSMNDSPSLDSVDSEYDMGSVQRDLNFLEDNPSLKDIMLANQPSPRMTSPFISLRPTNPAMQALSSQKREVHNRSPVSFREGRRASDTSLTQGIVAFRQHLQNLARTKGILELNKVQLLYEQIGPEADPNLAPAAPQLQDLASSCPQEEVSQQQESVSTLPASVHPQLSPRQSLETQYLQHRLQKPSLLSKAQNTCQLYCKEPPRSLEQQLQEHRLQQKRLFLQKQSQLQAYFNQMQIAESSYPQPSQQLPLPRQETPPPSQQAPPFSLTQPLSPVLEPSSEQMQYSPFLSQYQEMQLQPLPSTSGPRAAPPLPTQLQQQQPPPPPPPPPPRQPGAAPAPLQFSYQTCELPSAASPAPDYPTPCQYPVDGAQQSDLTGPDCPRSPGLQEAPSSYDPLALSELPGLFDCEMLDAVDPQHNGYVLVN

[21] = experiment wp104, direction down
[22] = experiment wp137, direction down
[23] = experiment wp135, 8 hr, direction down

C[C@@H]1C[C@@H](O)c2ncnc(N3CCN(C(=O)[C@H](CNCCCCCCCCNC(=O)COc4cccc5c4C(=O)N(C4CCC(=O)NC4=O)C5=O)c4ccc(Cl)cc4)CC3)c21 (stereo partly drawn) [INY.02.164]
logFC FASTKD5 [1]: −0.3422
logFC IP6K2 ([2]; experiment wp137): −0.5449
logFC AK4 (P27144) [3]: −0.5601
logFC ([4]; experiment wp104): −1.478
logFC [4, 21]: −1.478
logFC ([4]; experiment wp137): −3.147
logFC [4, 22]: −3.147
logFC [5]: −0.4419
logFC PDK1 [5]: −0.4419
logFC [6]: −0.36
logFC ([6]; direction down): −0.36
logFC ([7]; experiment wp104): −0.7926
logFC ([7]; experiment wp137): −3.206
logFC of AKT1 (P31749) ([7]; Experiment wp104): −0.7926
logFC of AKT1 (P31749) ([7]; experiment wp137): −3.206
logFC ([8]; experiment wp104): −1.078
logFC [8, 21]: −1.078
logFC ([8]; experiment wp137): −3.156
logFC [8, 22]: −3.156

C[C@@H]1C[C@@H](O)c2ncnc(N3CCN(C(=O)[C@H](CNCCCCCCCCCCc4cccc5c4C(=O)N(C4CCC(=O)NC4=O)C5=O)c4ccc(Cl)cc4)CC3)c21 (stereo partly drawn) [INY.03.041_01]
logFC IP6K2 ([2]; experiment wp135, 8 hr): −0.6456
logFC ([9]; experiment wp135, 8 hr): −0.497
logFC ([4]; experiment wp135, 8 hr): −2.215
logFC [4, 23]: −2.215
logFC CDK4 (P11802) ([10]; experiment wp135, 8 hr): −0.3281
logFC ([7]; experiment wp135, 8 hr): −2.273
logFC of AKT1 (P31749) ([7]; experiment wp135, 8 hr): −2.273
logFC ([8]; experiment wp135, 8 hr): −2.274
logFC [8, 23]: −2.274

CN[C@@H](C)C(=O)N[C@H](C(=O)N1CCC[C@H]1c1nc(C(=O)c2cccc(OCCCCCn3cc(CN4CCN(c5ccc(Nc6ncc7c(n6)N(C)C(=O)N(c6cc(NC(=O)c8cccc(C(F)(F)F)c8)ccc6C)C7)cn5)CC4)nn3)c2)cs1)C1CCCCC1 [DB118430]
logFC PFKFB3 [11]: −0.4616
logFC ([9]; experiment wp134): −0.3497
logFC STK17A ([9]; experiment wp134): −0.3497
logFC [12]: −0.3601
logFC ([13]; experiment wp134): −0.3866
logFC ([13]; experiment wp152): −0.3814
logFC BUB1 (O43683) ([13]; Experiment wp134): −0.3866
logFC BUB1 (O43683) ([13]; Experiment wp152): −0.3814
logFC BLK ([14]; experiment wp134): −0.5826
logFC BLK ([14]; experiment wp152): −0.9023
logFC of BLK (P51451) ([14]; Experiment wp134): −0.5826
logFC of BLK (P51451) ([14]; Experiment wp152): −0.9023
kinases the bifunctional compound degrades ([15]; as stated for the structure in the embodiments): BLK, BUB1, CDK4, LIMK2, SIK2, STK17A, TEC, TNK2, and UHMK1
Kinase hits ([15]; kinases significantly downregulated vs DMSO (fold change cutoff −1.25, P-value<0.01), ≤8 h, 0.1-5 μM degrader, 7 cell lines): BLK, BUB1, CDK4, LIMK2, SIK2, STK17A, TEC, TNK2, UHMK1
Total no. kinase hits ([15]; number of degraded kinases per library compound): 9
logFC UHMK1 ([16]; Accession Q8TAS1, direction down): −0.4944
logFC UHMK1 ([16]; UHMK1 (Q8TAS1)): −0.4944
logFC CDK4 (P11802) ([10]; experiment wp152): −0.3644
logFC TNK2 (Q07912-1) ([17]; Experiment wp134, direction down): −0.575
logFC TNK2 ([17]; TNK2 (Q07912-1), experiment wp134): −0.575
logFC LIMK2 ([18]; LIMK2 (P53671), down): −0.4571
logFC of LIMK2 ([18]; LIMK2 P53671): −0.4571
logFC [19]: −0.5666
logFC ([19]; direction down): −0.5666
logFC of SIK2 ([20]; Accession Q9H0K1): −0.3803
logFC SIK2 (Q9H0K1) ([20]; direction of change down): −0.3803
